Usually pIC50 stands for −log10 of the IC50, conventionally taken in molar units.

pIC50: −log10 of the molar value.

T1 sequence (Q9UM07 2-663): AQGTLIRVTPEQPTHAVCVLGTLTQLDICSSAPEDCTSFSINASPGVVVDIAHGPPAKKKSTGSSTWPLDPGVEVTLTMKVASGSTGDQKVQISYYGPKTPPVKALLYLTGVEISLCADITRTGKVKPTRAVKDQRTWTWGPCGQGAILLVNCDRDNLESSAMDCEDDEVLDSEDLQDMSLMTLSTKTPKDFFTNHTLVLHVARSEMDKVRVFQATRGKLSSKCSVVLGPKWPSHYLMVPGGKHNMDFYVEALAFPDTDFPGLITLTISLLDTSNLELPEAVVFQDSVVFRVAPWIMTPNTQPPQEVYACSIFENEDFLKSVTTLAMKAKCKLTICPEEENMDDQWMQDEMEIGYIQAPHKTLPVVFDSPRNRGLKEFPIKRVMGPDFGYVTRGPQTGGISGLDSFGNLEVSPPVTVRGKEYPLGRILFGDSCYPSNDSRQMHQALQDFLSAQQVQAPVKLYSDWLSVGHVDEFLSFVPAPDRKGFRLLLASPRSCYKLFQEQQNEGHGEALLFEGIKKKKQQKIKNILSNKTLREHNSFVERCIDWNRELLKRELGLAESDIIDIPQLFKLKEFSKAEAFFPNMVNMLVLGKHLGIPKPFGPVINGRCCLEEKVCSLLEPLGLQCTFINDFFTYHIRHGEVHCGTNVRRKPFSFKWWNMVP

This experiment addresses T1, human PAD4 (Homo sapiens, UniProt Q9UM07).
T1 construct: human PAD4 (NM_012387), A2P663, was PCR amplified; His-SUMO (N, cleaved yes); made in house; host or cells: E. coli BL21(DE3)
The experiment can be described thus: In vitro PAD4 BAEE biochemical assay. The note with it: human PAD4, BAEE substrate; 5 nM PAD4, 2 mM calcium chloride, 3 mM BAEE; geometric mean of multiple experiments. In outline:
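Ammonia generated from BAEE serves as the readout, measured by o-phthalaldehyde after EDTA termination. Final conditions: 5 nM human PAD4 (SUMO tag cleaved), 2 mM CaCl2, 3 mM BAEE, pH 7.6 MOPS buffer, 25 °C for 2 h following a 30-min compound preincubation.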
For `COc1cc(C(=O)N2[C@H]3CC[C@@H]2[C@H](N)C3)cc2nc(-c3cc4ccc([C@@H](C)NC(=O)C5CC(O)(C(F)(F)F)C5)nc4n3CC3CC3)c(C)n12` (stereo partly shown) [Example 45, ~{N}-[(1~{R})-1-[2-[7-[(1~{R},2~{R},4~{S})-2-amino-7-azabicyclo[2.2.1]heptane-7-carbonyl]-5-methoxy-3-methylimidazo [1,2-a]pyridin-2-yl]-1-(cyclopropylmethyl)pyrrolo[2,3-b]pyridin-6-yl]ethyl]-3-hydroxy-3-(trifluoromethyl) cyclobutane-1-carboxamide], the pIC50 was 7.60.
With `COc1cc(C(=O)N2[C@H]3CC[C@@H]2[C@H](N)C3)cc2nc(-c3cc4ccc([C@@H](C)NC(=O)N5CC(C(F)F)C5)nc4n3CC3CC3)c(C)n12` [Example 206, ~{N}-[(1~{R})-1-[2-[7-[(1~{R},2~{R},4~{S})-2-amino-7-azabicyclo[2.2.1]heptane-7-carbonyl]-5-methoxy-3-methylimidazo [1,2-a]pyridin-2-yl]-1-(cyclopropylmethyl)pyrrolo [2,3-b]pyridin-6-yl]ethyl]-3-(difluoromethyl)azetidine-1-carboxamide], the pIC50 was 7.42.
To `COc1cc(C(=O)N2[C@H]3CC[C@@H]2[C@H](N)C3)cc2nc(-c3cc4ccc([C@@H](C)NC(=O)N(C)C(C)c5cccnc5)nc4n3CC3CC3)c(C)n12` (stereo partly shown) [Example 221, 3-[(1~{R})-1-[2-[7-[(1~{R},2~{R},4~{S})-2-amino-7-azabicyclo[2.2.1]heptane-7-carbonyl]-5-methoxy-3-methylimidazo [1,2-a]pyridin-2-yl]-1-(cyclopropylmethyl)pyrrolo [2,3-b]pyridin-6-yl]ethyl]-1-methyl-1-(1-pyridin-3-ylethyl)urea] belongs 7.21; to `COc1cc(C(=O)N2[C@H]3CC[C@@H]2[C@H](N)C3)cc2nc(-c3cc4ccc(N5[C@@H]6CC[C@@H](C6)CS5(=O)=O)nc4n3CC3CC3)c(C)n12` [Example 473, [(1~{R},2~{R},4~{S})-2-amino-7-azabicyclo [2.2.1]heptan-7-yl]-[2-[1-(cyclopropylmethyl)-6-[(1~ {R},5~{S})-3,3-dioxo-3$l^6-thia-2-azabicyclo[3.2.1]octan-2-yl]pyrrolo [2,3-b]pyridin-2-yl]-5-methoxy-3-methylimidazo [1,2-a]pyridin-7-yl] methanone], 6.93.
For `CCc1ccc2cc(-c3nc4cc(C(=O)N5CCCC(NCCO)C5)cc(OC)n4c3C)n(CC3CC3)c2n1` (stereo not shown) [Example 581, [2-[1-(cyclopropylmethyl)-6-ethylpyrrolo[2,3-b]pyridin-2-yl]-5-methoxy-3-methylimidazo[1,2-a]pyridin-7-yl]-[3-(2-hydroxyethylamino)piperidin-1-yl]methanone], the pIC50 is 4.64.
Take `COc1cc(C(=O)N2[C@H]3CC[C@@H]2[C@H](N)C3)cc2nc(-c3cc4ccc([C@@H](C)NC(=O)N5CC(F)(F)C(F)(F)C5)nc4n3CC3CC3)c(C)n12` [Example 208, ~{N}-[(1~{R})-1-[2-[7-[(1~{R},2~{R},4~{S})-2-amino-7-azabicyclo[2.2.1]heptane-7-carbonyl]-5-methoxy-3-methylimidazo [1,2-a]pyridin-2-yl]-1-(cyclopropylmethyl)pyrrolo [2,3-b]pyridin-6-yl]ethyl]-3,3,4,4-tetrafluoropyrrolidine-1-carboxamide]: the pIC50 is 6.95.
On to `COc1cc(C(=O)N2[C@H]3CC[C@@H]2[C@H](N)C3)cc2nc(-c3cc4ccc([C@@H](C)NC(=O)C5(C)COC5)nc4n3CC3CC3)c(C3CC3)n12` [Example 109, ~{N}-[(1~{R})-1-[2-[7-[(1~{R},2~{R},4~{S})-2-amino-7-azabicyclo[2.2.1]heptane-7-carbonyl]-3-cyclopropyl-5-methoxyimidazo [1,2-a]pyridin-2-yl]-1-(cyclopropylmethyl)pyrrolo [2,3-b]pyridin-6-yl]ethyl]-3-methyloxetane-3-carboxamide], for which the pIC50 is 7.50.
Turning to `COc1cc(C(=O)N2[C@H]3CC[C@@H]2[C@H](N)C3)cc2nc(-c3cc4ccc([C@@H](C)NC(=O)c5ccncc5)nc4n3CC3CC3)c(C)n12` [Example 119, ~{N}-[(1~{R})-1-[2-[7-[(1~{R},2~{R},4~{S})-2-amino-7-azabicyclo[2.2.1]heptane-7-carbonyl]-5-methoxy-3-methylimidazo [1,2-a]pyridin-2-yl]-1-(cyclopropylmethyl)pyrrolo [2,3-b]pyridin-6-yl]ethyl] pyridine-4-carboxamide], the pIC50 is 7.46.
For the compound `COc1cc(C(=O)N2CCC[C@@H](N)C2)cc2nc(-c3cc4ccc([C@H](C)CC(=O)N(C)C)nc4n3CC3CC3)c(C)n12` [Example 534, (3~{R})-3-[2-[7-[(3~{R})-3-aminopiperidine-1-carbonyl]-5-methoxy-3-methylimidazo[1,2-a]pyridin-2-yl]-1-(cyclopropylmethyl)pyrrolo[2,3-b]pyridin-6-yl]-~{N},~{N}-dimethylbutanamide], the pIC50 is 6.85.
With `COc1cc(C(=O)N2[C@H]3CC[C@@H]2[C@H](N)C3)cc2nc(-c3cc4ccc(C(C)(O)C(C)C)nc4n3CC3CC3)c(C)n12` (stereo partly shown) [Example 571, [(1~{R},2~{R},4~{S})-2-amino-7-azabicyclo [2.2.1]heptan-7-yl]-[2-[1-(cyclopropylmethyl)-6-(2-hydroxy-3-methylbutan-2-yl)pyrrolo[2,3-b]pyridin-2-yl]-5-methoxy-3-methylimidazo[1,2-a]pyridin-7-yl]methanone] the figure was 6.33.
`COc1cc(C(=O)N2[C@H]3CC[C@@H]2[C@H](N)C3)cc2nc(-c3cc4ccc([C@@H](C)NC(=O)C5CCC(F)(F)CC5)nc4n3CC3CC3)c(C)n12` [Example 66, ~{N}-[(1~{R})-1-[2-[7-[(1~{R},2~{R},4~{S})-2-amino-7-azabicyclo [2.2.1]heptane-7-carbonyl]-5-methoxy-3-methylimidazo [1,2-a]pyridin-2-yl]-1-(cyclopropylmethyl)pyrrolo[2,3-b]pyridin-6-yl]ethyl]-4,4-difluorocyclohexane-1-carboxamide]: the pIC50 is 7.16.
With `COc1cc(C(=O)N2C[C@@H]3CC[C@H]2[C@H](N)C3)cc2nc(-c3cc4ccc(N(C(F)F)S(C)(=O)=O)nc4n3CC3CC3)c(C)n12` [Example 377, ~{N}-[2-[7-[(1~{R},4~{S}, 6~{R})-6-amino-2-azabicyclo[2.2.2]octane-2-carbonyl]-5-methoxy-3-methylimidazo[1,2-a]pyridin-2-yl]-1-(cyclopropylmethyl)pyrrolo [2,3-b]pyridin-6-yl]-~{N}-(difluoromethyl) methanesulfonamide], the pIC50 was 4.74.
Take `COc1cc(C(=O)N[C@@H]2CC[C@H]3CC[C@@H]2N3)cc2nc(-c3cc4ccc(N(C(F)F)S(C)(=O)=O)nc4n3CC3CC3)c(C)n12` [Example 298, ~{N}-[(1~{S},2~{R}, 5~{R})-8-azabicyclo [3.2.1]octan-2-yl]-2-[1-(cyclopropylmethyl)-6-[difluoromethyl (methylsulfonyl)amino]pyrrolo[2,3-b]pyridin-2-yl]-5-methoxy-3-methylimidazo[1,2-a]pyridine-7-carboxamide]: the pIC50 was 4.52.
Take `COc1cc(C(=O)N2C[C@H](N)C[C@@H](F)C2)cc2nc(-c3cc4ccc([C@@H](C)NC(=O)C56CC(F)(C5)C6)nc4n3CC3CC3)c(C)n12` [Example 36, ~{N}-[(1~{R})-1-[2-[7-[(3~{R}, 5~{R})-3-amino-5-fluoropiperidine-1-carbonyl]-5-methoxy-3-methylimidazo[1,2-a]pyridin-2-yl]-1-(cyclopropylmethyl)pyrrolo[2,3-b]pyridin-6-yl]ethyl]-3-fluorobicyclo[1.1.1] pentane-1-carboxamide]: the pIC50 was 6.43.
As for `Cc1c(-c2cc3ccc(N(C(F)F)S(C)(=O)=O)nc3n2CC2CC2)nc2cc(C(=O)N3CCC[C@@H](N)C3)cc(N(C)C)n12` [Example 422, ~{N}-[2-[7-[(3~{R})-3-aminopiperidine-1-carbonyl]-5-(dimethylamino)-3-methylimidazo[1,2-a]pyridin-2-yl]-1-(cyclopropylmethyl)pyrrolo [2,3-b]pyridin-6-yl]-~{N}-(difluoromethyl) methanesulfonamide], the pIC50 was 5.20.
For the compound `COc1cc(C(=O)N2[C@H]3CC[C@@H]2[C@H](N)C3)cc2nc(-c3cc4ccc([C@@H](C)Nc5cnccn5)nc4n3CC3CC3)c(C)n12` [Example 263, [(1~{R},2~{R},4~{S})-2-amino-7-azabicyclo [2.2.1]heptan-7-yl]-[2-[1-(cyclopropylmethyl)-6-[(1~{R})-1-(pyrazin-2-ylamino)ethyl]pyrrolo [2,3-b]pyridin-2-yl]-5-methoxy-3-methylimidazo[1,2-a]pyridin-7-yl]methanone], the pIC50 was 7.15.
`COc1cc(C(=O)N2C[C@@H]3C[C@]3(N)C2)cc2nc(-c3cc4ccc([C@@H](C)NC(=O)C56CC(F)(C5)C6)nc4n3CC3CC3)c(C)n12` [Example 25, ~{N}-[(1~{R})-1-[2-[7-[(1~{R},5~{S})-1-amino-3-azabicyclo [3.1.0]hexane-3-carbonyl]-5-methoxy-3-methylimidazo [1,2-a]pyridin-2-yl]-1-(cyclopropylmethyl)pyrrolo[2,3-b]pyridin-6-yl]ethyl]-3-fluorobicyclo[1.1.1] pentane-1-carboxamide]: the pIC50 is 5.35.
With `COc1cc(C(=O)N2[C@H]3CC[C@@H]2[C@H](N)C3)cc2nc(-c3cc4ccc([C@@H](C)NC(=O)CN=S(C)(C)=O)nc4n3CC3CC3)c(C)n12` [Example 96] the figure was 7.41; with `COc1cc(C(=O)N2[C@H]3CC[C@@H]2[C@H](N)C3)cc2nc(-c3cc4ccc([C@@H](C)NC(=O)N5CCOC[C@H]5C(F)(F)F)nc4n3CC3CC3)c(C)n12` [Example 200, (3~{S})-~{N}-[(1~{R})-1-[2-[7-[(1~{R},2~{R},4~{S})-2-amino-7-azabicyclo[2.2.1]heptane-7-carbonyl]-5-methoxy-3-methylimidazo [1,2-a]pyridin-2-yl]-1-(cyclopropylmethyl)pyrrolo [2,3-b]pyridin-6-yl]ethyl]-3-(trifluoromethyl)morpholine-4-carboxamide], 7.36.

The values are drawn from US12240862B2, “Inhibitors of peptidylarginine deiminases” (Gilead Sciences, Inc., priority 2020, dated 2025).
